Key:
[1] = tested on: amphetamine-induced rotation vs. avoidance acquisition; assay: R/A ratio: ED50 amphetamine-induced rotation / ED50 avoidance acquisition; format: in vivo, rat; settings: ratio of i.p. ED50 values in rats
Protocol: (§1) To predict the potential ability of a drug to cause EPS, the ratio of its ED50 (i.p.) for antagonism of amphetamine-induced rotation to its ED50 (i.p.) for blockade of shock avoidance acquisition in the rat, a procedure for assessing antipsychotic activity, (R/A ratio) is calculated.

extrapyramidal symptoms = settings: compared with chlorpromazine; cited from earlier work
[2] = tested on: shock avoidance acquisition in the rat; assay: Antagonism of shock avoidance acquisition in the rat (antipsychotic activity); format: in vivo; settings: ip, rats, i.p., piperidylidene derivatives (Table II), read-out: Antagonism of Avoidance Acquisition, Rats, ED50 (A)
Protocol: as §1

[3] = tested on: striatal dopamine receptors; assay: Antagonism of amphetamine-induced rotation in rats with unilateral substantia nigra lesions (Ungerstedt); format: in vivo, rat; settings: i.p., piperidylidene derivatives (Table II)
Text: There is evidence that antipsychotic drugs cause EPS by interfering with neurotransmission in a nigrostriatal dopaminergic pathway. It is thought that they block dopamine receptors in the neostriatum. Therefore, the ability of a drug to block striatal dopamine receptors is a measure of its EPS liability.
To assess the potency of drugs in blocking striatal dopamine receptors a procedure was used which was developed by Ungerstedt [Ungerstedt and Arbuthnott, Brain Res. 24 485 (1970); Ungerstedt, Acta physiol. scand., Suppl. 367, 49 (1971)] using rats with unilateral lesions of the substantia nigra induced by injection of 6-hydroxydopamine. This treatment causes degeneration of the nigrostriatal dopaminergic pathway accompanied by a marked decrease in the dopamine content of the neostriatum on the side of the lesion. Animals with this lesion develop postural and motor asymmetries which are altered by drugs which affect dopaminergic activity. Amphetamine, which releases dopmine and norepinephrine from catecholaminergic neurons, causes these rats to rotate unidirectionally toward the side of the lesion. Since there is a much larger amount of dopamine to be released by amphetamine from the intact nigrostriatal neurons on the non-lesioned side than from those remaining on the lesioned side, the rotational behavior is apparently due to the preponderance of activation of striatal dopamine receptors on the intact side. The ability of a drug to antagonize the rotational behavior is therefore a measure of its ability to block striatal dopamine receptors and is indicative of its potential to produce EPS.
as §1

[4] = piperidylidene derivatives (Table II)

Row | SMILES | R/A ratio ([1]; clinically established antipsychotics (Table I)) | propensity to cause EPS (extrapyramidal symptoms) | ED50 [2] | Antagonism of Amphetamine-induced Rotation, Rats, ED50 (R) [3] | R/A ratio [1, 4]
1 | CN1CCN(C2=Nc3cc(Cl)ccc3Nc3ccccc32)CC1 [Clozapine, reference compound] | 3.8 | known to produce EPS to a lesser extent than chlorpromazine | – | – | –
2 | CSc1ccc2c(c1)N(CCC1CCCCN1C)c1ccccc1S2 (stereo not drawn) [Thioridazine] | – | known to produce EPS to a lesser extent than chlorpromazine | – | – | –
3 | CCCCN1CCC(=C2c3ccccc3Oc3ccc(Br)cc32)CC1 [XXXII, 4-(2-bromo-9-xanthenylidene)-1-n-butylpiperidine] | – | – | 0.6 mg/kg | 3.0 mg/kg | 5.0
4 | CN1CCC(=C2c3ccccc3COc3cc(Cl)ccc32)CC1 [XXXIII, 4-(3-chloro-11(6H)-dibenz[b,e]oxepinylidene)-1-methylpiperidine] | – | – | 7.5 mg/kg | > 25 mg/kg | > 3

Source: US4086350A, “Pharmaceutical compositions and method of producing anti-psychotic activity without extrapyramidal symptoms” (priority 1975, dated 1978)
